Experimental data from patent publication US4713374A, “Ganglioside derivatives” (priority 1984, dated 1987).
Blank lines part the entries; values can stand above or below the compound they belong to.

How the values were obtained:
[1] = tested on: PC12 cells; test: Neurite sprouting in PC12 cells; format: cell-based; settings: 10^-6 M, serum-free vehicle with 50 ng/ml NGF, third day; controls 21.5
Description: The cells are then washed three times in a serum-free vehicle. […] This effect is evaluated by counting the number of cells with neurites at the third day.

[2] = tested on: (Na^+, K^+) ATPase of the neuronal membrane; test: (Na+,K+)ATPase activity of the neuronal membrane (rat brain P2 fraction); format: biochemical; settings: concentration 50 (50 nM), incubation with neuronal membranes 37° C. two hours; controls 100; 120 min
Description: a. Preparation of the raw mitochondrial fraction of rat brain (Fraction P2):
The procedure used in the preparation of P2 fraction was taken from Morgan e coll., Biochem. Biophys. Acta 241, 37 (1971). (The various operations were carried out at 0° to 4° C.; the xg values are average centrifugal forces).
Adult male Sprague Dawley rats (supplied by Charles River) (body weight 150-175 g) were decapitated and their brains were immediately removed and washed in an ice cold isotonic solution. After excision of the cerebellum, the brains were homogenized by effecting 12 up and down movements in a motor-driven glass and Telfon homogenizer (declared radial clearance 0.25 mm; 800 r.p.m.) using 4 vol. of homogenizing solution (0.32M saccharose containing 1 mM potassium phosphate buffer and […] of disodium EDTA, pH 7.27). The homogenized substance, filtered through four layers of fine gauze, was centrifuged at 1000 r.p.m. for 15 minutes. The resulting pellet was washed with the same initial volume of homogenizing solution and centrifuged as described above. The gathered supernatants were centrifuged at 17,500 r.p.m. for 25 minutes (these conditions of gravitational centrifugal force were used to obtain the maximum enrichment of nervous terminations in the fraction) and the pellet was washed four times in 9 volumes (each time) of homogenizing solution and centrifuged (17,500 r.p.m. for 25 minutes).
The final pellet, known as "P2 fraction" contains as its principal component, whole mitochondria and nervous terminations. The final pellet was homogeneously resuspended with a suitable volume of homogenizing solution with a glass and Teflon homogenizer, and used immediately for the test. […]
ATPase activity was measured by spectrophotometry according to Wallick and coll. […] The (Na^+, K^+)ATPase activity is determined by the difference between the total ATPase activity and the dependent ATPase Mg^2+ activity measured in the presence of 3×10^-5 M of Ouabain. […] The ATPase activity was expressed as International Unit (I.U.) (μmoles hydrolized ATP/mg protein/min). […]

[3] = set-up: species or system Swiss mice; settings: mouse, in vivo, iv
Description: Labelled ganglioside is prepared as described by Suzuki et al. [J. Lipid Res. 13, 687-690 (1972)] and modified by Ghidoni et al. [Ital. J. Biochem. 23, 320-328 (1974)]. The ethyl and isopropyl esters are prepared by esterification of this labelled ganglioside. The specific radioactivity is measured both of the ganglioside and esters.
Swiss mice obtained from Charles River (Calco), weighing about 20-25 g were treated by intravenous route with 10 μC of the products. 2-4-8-12-16 hours after administration, the animals were sacrificed by decapitation and their blood was gathered in heparinized flasks. The nonvolatile radioactivity was determined on blood samples by means of a Packard TRICARB scintillator and then identified with reference to ^3 H ganglioside and to the esters by TLC.

SMILES: CCCCCCCCCCCCC/C=C/[C@@H](OC(C)=O)[C@H](CO[C@@H]1O[C@H](COC(C)=O)[C@@H](O[C@@H]2O[C@H](COC(C)=O)[C@H](O[C@@H]3O[C@H](COC(C)=O)[C@H](OC(C)=O)[C@H](O[C@@H]4O[C@H](COC(C)=O)[C@H](OC(C)=O)[C@H](OC(C)=O)[C@H]4OC(C)=O)[C@H]3NC(C)=O)[C@H](O[C@]3(C(=O)OC)C[C@H](OC(C)=O)[C@@H](NC(C)=O)[C@H]([C@H](OC(C)=O)[C@@H](COC(C)=O)OC(C)=O)O3)[C@H]2OC(C)=O)[C@H](OC(C)=O)[C@H]1OC(C)=O)NC(=O)CCCCCCCCCCCCCCCCC [Methylic ester of peracetylated GM1, Peracetylated derivative of the methyl ester of the ganglioside GM1]
% of the no. of cells with neurites at 3rd day [1]: 29.4%

SMILES: CCCCCCCCCCCCC/C=C/[C@@H](OC(C)=O)[C@H](CO[C@@H]1O[C@H](COC(C)=O)[C@@H](O[C@@H]2O[C@H](COC(C)=O)[C@H](O[C@@H]3O[C@H](COC(C)=O)[C@H](OC(C)=O)[C@H](O[C@@H]4O[C@H](COC(C)=O)[C@H](OC(C)=O)[C@H](OC(C)=O)[C@H]4OC(C)=O)[C@H]3NC(C)=O)[C@H](O[C@]3(C(=O)O)C[C@H](OC(C)=O)[C@@H](NC(C)=O)[C@H]([C@H](OC(C)=O)[C@@H](COC(C)=O)OC(C)=O)O3)[C@H]2OC(C)=O)[C@H](OC(C)=O)[C@H]1OC(C)=O)NC(=O)CCCCCCCCCCCCCCCCC [Peracetylated GM1, Peracetylated derivative of the ganglioside GM1]
% of the no. of cells with neurites at 3rd day [1]: 30.2%

SMILES: CCCCCCCCCCCCC/C=C/[C@@H](O)[C@H](CO[C@@H]1O[C@H](CO)[C@@H](O[C@@H]2O[C@H](CO)[C@H](O[C@@H]3O[C@H](CO)[C@H](O)[C@H](O[C@@H]4O[C@H](CO)[C@H](O)[C@H](O)[C@H]4O)[C@H]3NC(C)=O)[C@H](O[C@]3(C(=O)OC(C)(C)C)C[C@H](O)[C@@H](NC(C)=O)[C@H]([C@H](O)[C@H](O)CO)O3)[C@H]2O)[C@H](O)[C@H]1O)NC(=O)CCCCCCCCCCCCCCCCC [Tertiarbutylic ester of GM1, Tertiary butyl ester of the ganglioside GM1]
% of the no. of cells with neurites at 3rd day [1]: 32.3%

Now from value to compound, other results behind:

% increase in (Na^+, K^+) ATPase activity [2]: 128%
SMILES: CCCCCCCCCCCCC/C=C/[C@@H](O)[C@H](CO[C@@H]1O[C@H](CO)[C@@H](O[C@@H]2O[C@H](CO)[C@H](O[C@@H]3O[C@H](CO)[C@H](O)[C@H](O[C@@H]4O[C@H](CO)[C@H](O)[C@H](O)[C@H]4O)[C@H]3NC(C)=O)[C@H](O[C@]3(C(N)=O)C[C@H](O)[C@@H](NC(C)=O)[C@H]([C@H](O)[C@H](O)CO)O3)[C@H]2O)[C@H](O)[C@H]1O)NC(=O)CCCCCCCCCCCCCCCCC [Amide of GM1, Amide of the ganglioside GM1]
% of the no. of cells with neurites at 3rd day [1]: 33.3%

% increase in (Na^+, K^+) ATPase activity [2]: 132%
SMILES: CCCCCCCCCCCCC/C=C/[C@@H](O)[C@H](CO[C@@H]1O[C@H](CO)[C@@H](O[C@@H]2O[C@H](CO)[C@H](O[C@@H]3O[C@H](CO)[C@H](O)[C@H](O[C@@H]4O[C@H](CO)[C@H](O)[C@H](O)[C@H]4O)[C@H]3NC(C)=O)[C@H](O[C@]3(C(=O)OC)C[C@H](O)[C@@H](NC(C)=O)[C@H]([C@H](O)[C@H](O)CO)O3)[C@H]2O)[C@H](O)[C@H]1O)NC(=O)CCCCCCCCCCCCCCCCC [Methylic ester of GM1, Methyl ester of the ganglioside GM1]
% of the no. of cells with neurites at 3rd day [1]: 35.7%

% increase in (Na^+, K^+) ATPase activity [2]: 133%
SMILES: CCCCCCCCCCCCC/C=C/[C@@H](O)[C@H](CO[C@@H]1O[C@H](CO)[C@@H](O[C@@H]2O[C@H](CO)[C@H](O[C@@H]3O[C@H](CO)[C@H](O)[C@H](O[C@@H]4O[C@H](CO)[C@H](O)[C@H](O)[C@H]4O)[C@H]3NC(C)=O)[C@H](O[C@]3(C(=O)O)C[C@H](O)[C@@H](NC(C)=O)[C@H]([C@H](O)[C@H](O)CO)O3)[C@H]2O)[C@H](O)[C@H]1O)NC(=O)CCCCCCCCCCCCCCCCC [Monosialoganglioside GM1, ganglioside GM1, reference compound]
% of the no. of cells with neurites at 3rd day [1]: 34.8%

t/2 of first phase of blood kinetic curve [3]: about three
SMILES: CCCCCCCCCCCCC/C=C/[C@@H](O)[C@H](CO[C@@H]1O[C@H](CO)[C@@H](O[C@@H]2O[C@H](CO)[C@H](O[C@@H]3O[C@H](CO)[C@H](O)[C@H](O[C@@H]4O[C@H](CO)[C@H](O)[C@H](O)[C@H]4O)[C@H]3NC(C)=O)[C@H](O[C@]3(C(=O)O)C[C@H](O)[C@@H](NC(C)=O)[C@H]([C@H](O)[C@H](O)CO)O3)[C@H]2O)[C@H](O)[C@H]1O)NC(=O)CCCCCCCCCCCCCCCCC [tritiated ganglioside]
